From ChEMBL document CHEMBL4038280, “Synthesis and human/bacterial carbonic anhydrase inhibition with a series of sulfonamides incorporating phthalimido moieties” (Bioorg Med Chem, 2017)

Key:
[1] = Inhibition of Vibrio cholerae beta carbonic anhydrase preincubated for 15 mins by stopped flow CO2 hydration assay
[2] = Inhibition of Vibrio cholerae alpha carbonic anhydrase preincubated for 15 mins by stopped flow CO2 hydration assay

| Compound | Ki [1] [µM] | Ki [2] [µM] |
| --- | --- | --- |
| COc1cc(NC(=O)c2ccc3c(c2)C(=O)N(c2ccc(S(N)(=O)=O)cc2)C3=O)c(C(=O)O)cc1OC | 7.97 | 2.84 |
| Cc1ccc(NC(=O)c2ccc3c(c2)C(=O)N(c2ccc(S(N)(=O)=O)cc2)C3=O)c(C(=O)O)c1 | 5.42 | 1.68 |
| COc1cc(NC(=O)c2ccc3c(c2)C(=O)N(CCc2ccc(S(N)(=O)=O)cc2)C3=O)c(C(=O)O)cc1OC | 8.58 | 3.19 |
| Cc1ccc(NC(=O)c2ccc3c(c2)C(=O)N(CCc2ccc(S(N)(=O)=O)cc2)C3=O)c(C(=O)O)c1 | 9.26 | 1.96 |
| Cc1ccc(NC(=O)c2ccc3c(c2)C(=O)N(Cc2ccc(S(N)(=O)=O)cc2)C3=O)c(C(=O)O)c1 | 8.2 | 2.59 |
| COc1cc(NC(=O)c2ccc3c(c2)C(=O)N(Cc2ccc(S(N)(=O)=O)cc2)C3=O)c(C(=O)O)cc1OC | 9.26 | 2.93 |
| NS(=O)(=O)c1ccc(N2C(=O)c3ccc(C(=O)Nc4ccc(I)cc4C(=O)O)cc3C2=O)cc1 | 5.4 | 0.281 |
| NS(=O)(=O)c1ccc(CCN2C(=O)c3ccc(C(=O)Nc4ccc(I)cc4C(=O)O)cc3C2=O)cc1 | 6.75 | 2.58 |
| NS(=O)(=O)c1ccc(CN2C(=O)c3ccc(C(=O)Nc4ccc(I)cc4C(=O)O)cc3C2=O)cc1 | 6.78 | 1.33 |
